Laboratory results published in ChEMBL document CHEMBL5029183 (J Med Chem, 2021).
Active and inactive are the calls of the source.

What was measured:
[1] = Toxicity in Kunming mouse model assessed as conditioned place preference time at 10 micromol/kg, sc; conditions: in vivo, dose 10 µmol/kg
[2] = test system: Mus musculus; experiment: Antinociceptive activity in Kunming mouse model assessed as increase in paw withdrawal latency at 10 micromol/kg, sc pretreated with sc dosed naloxone methiodide for 5 mins followed by compound addition by radiant heat paw withdrawal assay; type: functional, organism-based; conditions: dose 10.0 µmol/kg
[3] = test system: Mus musculus; experiment: Antiallodynic activity in Kunming mouse model of spared nerve injury-induced neuropathic pain assessed as increase in paw withdrawal threshold at 10 micromol/kg, sc by von Frey test; type: functional, organism-based; conditions: dose 10.0 µmol/kg
[4] = Metabolic stability in Kunming mouse serum assessed as half life measured upto 480 mins by RP-HPLC analysis; type: ADME, cell-free
[5] = test system: Mus musculus; experiment: Antinociceptive activity in Kunming mouse model assessed as increase in paw withdrawal latency at 20 nmol, icv pretreated for 10 mins with naloxone followed by compound addition and measured upto 10 mins by radiant heat paw withdrawal assay; type: functional, organism-based; conditions: time min <=10
[6] = test system: Mus musculus; experiment: Antiallodynic activity in Kunming mouse model of CFA-induced inflammatory pain assessed as increase in ipsilateral withdrawal threshold at 0.67 to 6.7 nmol, icv by von Frey test; type: functional, organism-based; conditions: dose 0.67-6.7 nmol, time 10-50 min, TDE = time-dependent effect
[7] = species: Rattus norvegicus; experiment: Selectivity index, ratio of Ki for displacement of [3H]DPDPE from DOR in Wistar rat brain membranes to Ki for displacement of [3H]DAMGO from MOR in Wistar rat brain membranes; type: cell membranes
[8] = test system: Mus musculus; experiment: Antinociceptive tolerance in Kunming mouse pretreated with compound for 3 hrs followed by challenge with second dose of compound at 20 nmol, icv and measured after 2 to 2.5 hrs by radiant heat paw withdrawal test; type: functional, organism-based; conditions: time lower 5.0 hrs, time upper […]
[9] = species: Mus musculus; experiment: Tolerance ratio of ED50 for Kunming mouse pretreated with 3 times ED50 of compound for 2 hrs followed by challenge with second dose of compound to ED50 for Kunming mouse pretreated with saline for 2 hrs followed by compound addition; type: functional
[10] = test system: Mus musculus; experiment: Chronic antinociceptive tolerance in Kunming mouse pretreated with compound followed by repeated compound addition at 10 micromol/kg, sc once daily for 7 days and measured after 10 mins by radiant heat paw withdrawal test; type: functional, organism-based; conditions: dose 10.0 µmol/kg, time 7.0 day
[11] = species: Mus musculus; experiment: Antinociceptive tolerance in Kunming mouse pretreated with 3 times ED50 of compound for 2 hrs followed by challenge with second dose of compound by radiant heat paw withdrawal test; type: functional
[12] = test system: Mus musculus; experiment: Antinociceptive activity in Kunming mouse model assessed as increase in paw withdrawal latency at 0.67 to 20 nmol, icv measured after 10 mins by radiant heat paw withdrawal assay; type: functional, organism-based; conditions: dose 0.67-20 nmol
[13] = test system: Mus musculus; experiment: Antinociceptive activity in Kunming mouse model assessed as increase in paw withdrawal latency at 20 nmol, icv pretreated for 4 hrs with beta-FNA followed by compound addition and measured upto 10 mins by radiant heat paw withdrawal assay; type: functional, organism-based; conditions: time min <=10
[14] = Metabolic stability in Kunming mouse brain assessed as half life measured upto 480 mins by RP-HPLC analysis; type: ADME, tissue-based
[15] = test system: Mus musculus; experiment: Antiallodynic activity in Kunming mouse model of spared nerve injury-induced neuropathic pain assessed as increase in paw withdrawal threshold at 10 micromol/kg, sc measured at 10 to 50 mins by von Frey test; type: functional, organism-based; conditions: dose 10.0 µmol/kg, time 10-50 min
[16] = molecular target: Kappa-type opioid receptor (Homo sapiens) (UniProt P41145); experiment: Agonist activity at kappa-opioid receptor (unknown origin) expressed in HEK293 cells assessed as inhibition of forskolin-induced cAMP accumulation incubated for 15 mins by ELISA; type: functional, cell-based
[17] = molecular target: Delta-type opioid receptor (Homo sapiens) (UniProt P41143); experiment: Agonist activity at delta-opioid receptor (unknown origin) expressed in HEK293 cells assessed as inhibition of forskolin-induced cAMP accumulation incubated for 15 mins by ELISA; type: functional, cell-based
[18] = test system: Vas deferens; experiment: Inhibition of electric-field induced mouse vas deferens contraction; type: functional, tissue-based
[19] = species: Mus musculus; experiment: Antinociceptive tolerance in Kunming mouse pretreated with saline for 2 hrs followed by compound addition by radiant heat paw withdrawal test; type: functional
[20] = test system: Mus musculus; experiment: Antinociceptive activity in Kunming mouse model assessed as increase in paw withdrawal latency at 10 micromol/kg, sc by radiant heat paw withdrawal assay; type: functional, organism-based; conditions: dose 10.0 µmol/kg
[21] = Toxicity in Kunming mouse model assessed as conditioned place preference time at 20 nmol, icv; conditions: in vivo, icv_or_intrathecal
[22] = test system: Mus musculus; experiment: Antinociceptive activity in Kunming mouse model assessed as increase in paw withdrawal latency at 20 nmol, icv pretreated for 20 mins with NTI followed by compound addition and measured upto 10 mins by radiant heat paw withdrawal assay; type: functional, organism-based; conditions: time min <=10
[23] = test system: Mus musculus; experiment: Antinociceptive tolerance in Kunming mouse pretreated with compound for 3 hrs followed by challenge with second dose of compound at 20 nmol, icv and measured after 3 hrs by radiant heat paw withdrawal test; type: functional, organism-based; conditions: time 6.0 hrs
[24] = test system: Mus musculus; experiment: Antinociceptive activity in Kunming mouse model assessed as increase in paw withdrawal latency at 0.67 to 20 nmol, icv measured upto 50 mins by radiant heat paw withdrawal assay; type: functional, organism-based; conditions: dose 0.67-20 nmol, time min <=50
[25] = test system: Ileum; experiment: Inhibition of electric-field induced guinea pig ileum contraction; type: functional, tissue-based; conditions: Cavia porcellus
[26] = Toxicity in icv dosed Kunming mouse assessed as inhibition of gastrointestinal transit by measuring charcoal distance travel by charcoal meal test; type: organism-based; conditions: in vivo, icv_or_intrathecal, dose 0.67-6.7 nmol
[27] = Toxicity in Kunming mouse assessed as effect on motor coordination at 10 micromol/kg, sc by rotarod test; type: organism-based; conditions: in vivo, dose 10 µmol/kg
[28] = test system: Mus musculus; experiment: Antinociceptive activity in Kunming mouse model assessed as increase in paw withdrawal latency at 10 micromol/kg, sc at 10 to 90 mins by radiant heat paw withdrawal assay; type: functional, organism-based; conditions: dose 10.0 µmol/kg, time 10-90 min
[29] = molecular target: T1, Mu-type opioid receptor (Homo sapiens, UniProt P35372); experiment: Agonist activity at mu-opioid receptor (unknown origin) expressed in HEK293 cells assessed as inhibition of forskolin-induced cAMP accumulation incubated for 15 mins by ELISA relative to control; type: functional, cell-based; conditions: filed as agonist
[30] = test system: Mus musculus; experiment: Antiallodynic activity in Kunming mouse model of spared nerve injury-induced neuropathic pain assessed as increase in paw withdrawal threshold at 0.67 to 6.7 nmol, icv after 50 mins by von Frey test; type: functional, organism-based; conditions: dose 0.67-6.7 nmol
[31] = test system: Mus musculus; experiment: Antinociceptive activity in Kunming mouse model assessed as increase in paw withdrawal latency at 10 micromol/kg, sc pretreated with icv dosed naloxone methiodide for 5 mins followed by compound addition by radiant heat paw withdrawal assay; type: functional, organism-based; conditions: dose 10.0 µmol/kg
[32] = test system: Mus musculus; experiment: Antiallodynic activity in icv dosed Kunming mouse model of spared nerve injury-induced neuropathic pain assessed as increase in ipsilateral withdrawal threshold by von Frey test; type: functional, organism-based; conditions: dose 0.67-6.7 nmol
[33] = test system: Mus musculus; experiment: Antiallodynic activity in icv dosed Kunming mouse model of CFA-induced inflammatory pain assessed as increase in ipsilateral withdrawal threshold measured upto 50 mins by von Frey test; type: functional, organism-based; conditions: dose 0.67-6.7 nmol, time min <=50
[34] = molecular target: T1, Mu-type opioid receptor; experiment: Agonist activity at mu-opioid receptor (unknown origin) expressed in HEK293 cells assessed as inhibition of forskolin-induced cAMP accumulation incubated for 15 mins by ELISA; type: functional, cell-based
[35] = test system: Mus musculus; experiment: Antiallodynic activity in icv dosed Kunming mouse model of spared nerve injury-induced neuropathic pain assessed as increase in paw withdrawal threshold measured upto 50 mins by von Frey test; type: functional, organism-based; conditions: dose 0.67-6.7 nmol, time min <=50
[36] = test system: Mus musculus; experiment: Antinociceptive activity in icv dosed Kunming mouse model assessed as increase in paw withdrawal latency by radiant heat paw withdrawal assay; type: functional; conditions: dose 0.67-20 nmol
[37] = Toxicity in Kunming mouse assessed as effect on motor coordination at 20 nmol, icv by rotarod test; conditions: in vivo, icv_or_intrathecal

T1 sequence (P35372 whole entry): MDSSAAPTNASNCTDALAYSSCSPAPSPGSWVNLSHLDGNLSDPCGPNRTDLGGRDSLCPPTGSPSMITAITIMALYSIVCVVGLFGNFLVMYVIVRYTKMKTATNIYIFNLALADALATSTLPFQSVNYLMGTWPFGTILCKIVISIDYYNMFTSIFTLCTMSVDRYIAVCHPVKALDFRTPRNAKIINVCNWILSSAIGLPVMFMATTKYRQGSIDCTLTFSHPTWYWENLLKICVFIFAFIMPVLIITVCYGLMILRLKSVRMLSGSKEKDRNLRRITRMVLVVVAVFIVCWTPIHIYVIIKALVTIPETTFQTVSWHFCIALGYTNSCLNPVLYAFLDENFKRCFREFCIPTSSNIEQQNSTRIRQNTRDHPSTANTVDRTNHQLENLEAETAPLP
Chain of Kappa-type opioid receptor (Homo sapiens) (P41145 whole entry): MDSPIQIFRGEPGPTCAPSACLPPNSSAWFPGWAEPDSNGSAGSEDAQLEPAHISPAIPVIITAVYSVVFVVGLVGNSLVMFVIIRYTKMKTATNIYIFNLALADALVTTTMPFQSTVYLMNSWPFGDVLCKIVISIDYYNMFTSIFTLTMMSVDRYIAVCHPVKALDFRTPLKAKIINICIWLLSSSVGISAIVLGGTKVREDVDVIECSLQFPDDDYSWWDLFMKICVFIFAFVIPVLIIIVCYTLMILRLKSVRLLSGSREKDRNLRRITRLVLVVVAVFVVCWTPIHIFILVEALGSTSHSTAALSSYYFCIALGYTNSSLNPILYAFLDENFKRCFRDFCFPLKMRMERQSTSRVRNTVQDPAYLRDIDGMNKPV
Chain of Delta-type opioid receptor (Homo sapiens) (P41143 whole entry): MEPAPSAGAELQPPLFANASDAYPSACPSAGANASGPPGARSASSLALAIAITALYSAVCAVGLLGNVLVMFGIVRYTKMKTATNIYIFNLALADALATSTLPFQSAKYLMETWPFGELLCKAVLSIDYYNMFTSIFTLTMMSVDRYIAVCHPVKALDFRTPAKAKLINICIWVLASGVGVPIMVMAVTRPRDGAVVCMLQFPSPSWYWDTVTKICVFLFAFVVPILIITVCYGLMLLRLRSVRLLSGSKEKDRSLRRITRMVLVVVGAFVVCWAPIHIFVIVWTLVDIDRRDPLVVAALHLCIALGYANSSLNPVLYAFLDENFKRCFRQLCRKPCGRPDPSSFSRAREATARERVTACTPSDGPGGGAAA

With `Cc1cc(O)cc(C)c1C[C@H](N)C(=O)N[C@H]1CSSC[C@@H](C(=O)NCC(=O)N[C@H](CCCNC(=N)N)C(=O)N[C@H](CCCNC(=N)N)C(=O)O)NC(=O)[C@H](Cc2ccc(Cl)cc2)NC(=O)[C@H](Cc2ccccc2)NC1=O` the Time [1] was 453 s, the Activity [2] was “Active” and the Activity [3] was “Active”. The half-life [4] was 5.33 h, the Activity [5] was “inactive” and the Activity [6] was “Tde”. For the same compound, the Ratio Ki [7] was 705, the Activity [8] was “Active” and the Ratio [9] was 1.5. The Activity [10] was “inactive”, the ED50 [11] was 3.5 nmol and the Activity [12] was “Active”. For the same compound, the Activity [13] was “inactive”, the half-life [14] was 7.13 h and the Activity [15] was “Active”. For the same compound, the Activity [16] was “inactive”, the Activity [17] was “inactive” and the IC50 [18] was 49.3 nM. For the same compound, the ED50 [19] was 2.3 nmol, the Activity [20] was “Active” and the Time [21] was 450 s. For the same compound, the Activity [22] was “Active”, the Activity [23] was “inactive” and the Activity [24] was “Active”. For the same compound, the IC50 [25] was 11.8 nM, the Activity [26] was “Dose-Dependent Effect” and the Activity [27] was “Non-Toxic”. For the same compound, the Activity [28] was “Active”, the Emax [29] was 83.8% and the Activity [30] was “inactive”. For the same compound, the Activity [31] was “inactive”, the Activity [32] was “Dose-Dependent Effect” and the Activity [33] was “Dose-Dependent Effect”. The EC50 [34] was 14.3 nM, the Activity [35] was “Dose-Dependent Effect” and the Activity [36] was “Dose-Dependent Effect”. For the same compound, the ED50 [36] was 2.3 nmol and the Activity [37] was “Non-Toxic”.
In the case of `Cc1cc(O)cc(C)c1C[C@H](N)C(=O)N[C@H]1CSSC[C@@H](C(=O)NCC(=O)N[C@H](CCCNC(=N)N)C(=O)N[C@H](CCCNC(=N)N)C(=O)O)NC(=O)[C@H](Cc2ccc(Cl)cc2)NC(=O)[C@H](Cc2c[nH]c3ccccc23)NC1=O`, the Time [1] is reported as 453 s, the Activity [2] is reported as “Active” and the Activity [3] is reported as “Active”. The half-life [4] was 5.58 h, the Activity [5] was “inactive” and the Activity [6] was “Tde”. The Ratio Ki [7] was 361, the Activity [8] was “Active” and the Ratio [9] was 1.2. The Activity [10] was “inactive”, the ED50 [11] was 2.7 nmol and the Activity [12] was “Active”. The Activity [13] was “inactive”, the half-life [14] was 7.48 h and the Activity [15] was “Active”. For the same compound, the Activity [16] was “inactive”, the Activity [17] was “inactive” and the IC50 [18] was 47.5 nM. For the same compound, the ED50 [19] was 2.2 nmol, the Activity [20] was “Active” and the Time [21] was 447 s. For the same compound, the Activity [22] was “Active”, the Activity [23] was “inactive” and the Activity [24] was “Active”. For the same compound, the IC50 [25] was 9.21 nM, the Activity [26] was “Dose-Dependent Effect” and the Activity [27] was “Non-Toxic”. For the same compound, the Activity [28] was “Active”, the Emax [29] was 87.3% and the Activity [30] was “inactive”. The Activity [31] was “inactive”, the Activity [32] was “Dose-Dependent Effect” and the Activity [33] was “Dose-Dependent Effect”. The EC50 [34] was 13.6 nM, the Activity [35] was “Dose-Dependent Effect” and the Activity [36] was “Dose-Dependent Effect”. For the same compound, the ED50 [36] was 2.1 nmol and the Activity [37] was “Non-Toxic”.
